Reference: patent US9012166B2, “Method for assaying histone methylation enzyme activity” (Kyushu Institute of Technology, priority 2010, dated 2015)
Where two headings read alike, the source gives them in different places.

Target: T1, Set9 (His-Set9, His-Set7/9) (Homo sapiens, UniProt Q8WTS6)
T1 sequence (Q8WTS6 1-366): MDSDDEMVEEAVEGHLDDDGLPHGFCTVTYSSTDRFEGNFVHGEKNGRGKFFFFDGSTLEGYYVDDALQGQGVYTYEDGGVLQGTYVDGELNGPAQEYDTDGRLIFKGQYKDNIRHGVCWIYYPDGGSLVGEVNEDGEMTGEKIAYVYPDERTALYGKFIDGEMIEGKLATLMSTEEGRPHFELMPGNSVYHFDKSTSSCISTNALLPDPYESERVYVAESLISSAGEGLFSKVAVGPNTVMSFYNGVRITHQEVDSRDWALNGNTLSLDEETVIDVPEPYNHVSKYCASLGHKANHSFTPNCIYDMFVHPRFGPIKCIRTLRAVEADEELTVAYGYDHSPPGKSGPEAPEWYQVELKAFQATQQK
Assay: Assay for measuring histone methyltransferase activity using peptidyl MCA, inhibitor evaluation with Set9
Format: biochemical
Protocol: When Set9 was adopted as a histone methyltransferase, the following method was used. 10 μL of 2×HMT buffer (100 mM Tris-HCl (pH 8.5), 20 mM MgCl2, 40 mM KCl, 20 mM 2-mercaptoethanol, 500 mM sucrose), 0.4 μL of a BSA solution (150 μg/mL), 4.5 μL of His-Set9 (0, 2.25 μg/μL), 1 μL of gliotoxin (any of various concentrations) and 0.1 μL of distilled water were mixed and then incubated at room temperature for 1 hour. Then, 2 μL of SAM (10 mM) and 2 μL of a peptidyl MCA (Ac-p53 (369-372)-MCA) solution (0.6 mM) were added thereto, which was then incubated at 37° C. for 1 hour. Thereafter, 30 μL of a trypsin solution (20 mg/mL) was added thereto, followed by incubation at 37° C. for 15 minutes. Then, the fluorescence intensity of the solution was measured at an excitation wavelength (λex) of 390 nm and a fluorescence wavelength (λem) of 460 nm. The final concentration of His-Set9 during the measurement of fluorescence intensity was 0.5 μg/μL. […]
The rate of the inhibition of methylation by gliotoxin was calculated from the results in the left panel and the middle panel of FIG. 18. Specifically, the value (%) was calculated which was obtained by dividing “a value obtained by subtracting “the fluorescence intensity of AMC when peptidase was added but gliotoxin was not added” from “the fluorescence intensity of AMC when both peptidase and gliotoxin were added”” by “a value obtained by subtracting “the fluorescence intensity of AMC when peptidase was added but gliotoxin was not added” from “the fluorescence intensity of AMC when no peptidase or gliotoxin was added”” and multiplying the resultant value by 100. […]
When His-Set7/9 was adopted as a histone methyltransferase, the following method was used. […] Then, the fluorescence intensity of the solution was measured at an excitation wavelength (λex) of 330 nm and a fluorescence wavelength (λem) of 380 nm or at an excitation wavelength (λex) of 390 nm and a fluorescence wavelength (λem) of 460 nm. The final concentration of His-Set7/9 during the measurement of fluorescence intensity was 0 μg/μL or 0.05 μg/μL.

Measured: IC50

CN1C(=O)[C@]23CC4=CC=C[C@H](O)[C@H]4N2C(=O)[C@@]1(CO)SS3 [gliotoxin]
> 100 µM: Example 8, Ac-p53 (369-372)-MCA, AMC fluorescence λex 390 nm/λem 460 nm, FIG. 18, read-out: IC50 for Set9 | Example 14, Ac-ERα(299-302)-MCA, AMC fluorescence λex 390 nm/λem 460 nm, left panel, read-out: IC50 for His-Set7/9 | Example 14, Ac-ERα(299-302)-MCA, peptidyl MCA fluorescence λex 330 nm/λem 380 nm, right panel of FIG. 28, read-out: IC50 for His-Set7/9
